Biological target: T1, ADRB2 (Homo sapiens, UniProt P07550)
T1 construct: purchased Promega (in-house HiBiT-GPCR construct library, NanoBRET)
Assay: NanoBRET screen HiBiT-ADRB2 in HEK293
Type: binding
Method: Each tracer candidate was screened across the entire library of HiBiT-GPCR constructs using NanoBRET as the detection modality. As depicted in Figure 4A, the specificity of interactions was evaluated through decrease in BRET due to competitive displacement of a bound tracer by excess parental compound. Each tracer was analyzed for binding to each HiBiT-GPCR fusion in the absence and in the presence of competing parental compound. Briefly, HEK293 cells were transfected with HiBiT-GPCR constructs diluted into promoterless DNA to reduce expression and maximize translocation to the cell surface. Each tracer candidate was then screened at concentrations of 1 μM and 0.1 μM across cells expressing these fusions. Cells were treated for 1.5 h with tracer either alone or in the presence of 20 μM competing parental compound (i.e., control). BRET was measured upon addition of purified LgBiT and subsequent complementation with HiBiT genetically fused to a GPCR. The specificity of interactions was assessed through a decrease in BRET signal due to competitive displacement of the bound tracer. To further gauge the robustness of these interactions, the fold response over the control (i.e., BRETtracer/BRETcontrol) was calculated. We chose a 1.5-fold response, which translates to ≥7-fold signal over noise as the minimal threshold required to score an interaction as positive.
HiBiT-GPCR DNA constructs were diluted in 10 mM Tris pH 8 to a final concentration of 0.01 μg/μL, arrayed in 96-well plates and stored at −20 °C. For transfection, HEK293 cells were suspended in Opti-MEM (without phenol red) supplemented with 2% fetal bovine serum (Seradigm) and 100 units/mL penicillin–streptomycin (Gibco) at a final concentration of 220,000 cells/mL and dispensed into white 96-well plates at 90 μL/well. Subsequent transfections and screens were carried using an Agilent Bravo Automated Liquid Handling Platform. First, the 96-well HiBiT DNA arrays were diluted 25-fold in Opti-MEM (without serum or phenol red) to a final concentration of 0.0004 μg/μL and 20 μL of the diluted DNAs were transferred into new 96-well plates. Next, promoterless carrier DNA (1 μg/μL) was diluted 25-fold (0.04 μg/μL) and then dispensed into the diluted arrays at 20 μL/well. Following brief mixing, Viafect transfection reagent (Promega) diluted 16-fold into Opti-MEM was dispensed into the plates at 40 μL/well. After mixing by pipetting, plates were incubated for 10 min on the pipetting station deck. The DNA-transfection reagent complexes were then added to plates containing cells. To facilitate the screen, 10 μL of DNA-transfection reagent complexes were added in duplicates to the top 4 and bottom 4 rows, resulting in two identical 48-well arrays per plate. Plates with transfected cells were incubated for 18–20 h at 37 °C/5% CO2. A screen of each tracer across the entire library using two different concentrations requires duplicate plates of transfected cells. Depending on the number of tracers being screened, transfections can be scaled up using the same ratios. The next day, for each tracer, four 20× screening solutions in tracer dilution buffer (Promega) were prepared: two duplicates at final concentration of 20 μM and two duplicates at a final concentration of 2 μM. […] The four resulting solutions were diluted 4-fold in Opti-MEM without serum or phenol red to generate 5× solutions (5 µM and 0.5 µM tracer +/− 100 μM competing compound). To screen the library, a BioTek MultiFlo FX liquid dispenser was used to dispense 22.5 µL of tracer solution to the top 4 rows and 22.5 µL tracer + competing compound solution to the 4 bottom rows. Plates were briefly mixed on an orbital shaker and incubated for 1.5 h at room temperature. […] Plates were briefly mixed on an orbital shaker and incubated for 15 min to allow complementation.

T1 sequence (P07550 whole entry): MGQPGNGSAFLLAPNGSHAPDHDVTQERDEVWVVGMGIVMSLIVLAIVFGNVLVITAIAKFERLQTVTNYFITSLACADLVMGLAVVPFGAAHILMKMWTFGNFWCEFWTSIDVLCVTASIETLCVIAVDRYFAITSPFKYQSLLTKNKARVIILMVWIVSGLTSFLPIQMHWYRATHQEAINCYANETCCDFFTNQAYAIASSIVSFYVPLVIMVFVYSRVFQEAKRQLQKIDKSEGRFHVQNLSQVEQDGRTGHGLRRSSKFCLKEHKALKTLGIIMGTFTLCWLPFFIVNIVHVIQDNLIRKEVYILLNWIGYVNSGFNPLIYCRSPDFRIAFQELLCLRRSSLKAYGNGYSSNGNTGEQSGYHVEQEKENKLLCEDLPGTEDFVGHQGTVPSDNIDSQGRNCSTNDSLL

Compound	NanoBRET Fold Response (ADRB2, tracer 0.1μM)	NanoBRET Fold Response (ADRB2, tracer 1μM)	other results
CCOC(=O)c1cc(C#N)c(N2CCC(C(=O)NS(=O)(=O)Cc3ccccc3/C=C/C(=O)NCCNC(=O)CCc3ccc4n3[B-](F)(F)[N+]3=C(c5ccc[nH]5)C=CC3=C4)CC2)nc1C [AZD1283-1-NB590]	–	–	NanoBRET Fold Response (ADRB2, 0.1μM): 1.01; NanoBRET Fold Response (ADRB2, 1μM): 1.06
N#CN/C(=N\CCNC(=O)c1ccc(N)cc1)NCCCOc1cccc(CN2CCCCC2)c1 [Aminopotentidine (unmodified)]	–	–	NanoBRET Fold Response (ADRB2, other tracers/Aminopotentidine (unmodified), 0.1μM): 1.00; NanoBRET Fold Response (ADRB2, other tracers/Aminopotentidine (unmodified), 1μM): 1.04
N#CN=C(NCCCOc1cccc(CN2CCCCC2)c1)NCCNC(=O)CCOCCOCCOCCOCCNC(=O)CCc1ccc2n1[B-](F)(F)[N+]1=C(c3ccc[nH]3)C=CC1=C2 [Aminopotentidine-2-NB590]	1.05	1.02	–
CN(C)CCC=C1c2ccccc2CCc2ccc(C(=O)NCCNC(=O)CCOCCOCCOCCOCCNC(=O)CCc3ccc4n3[B-](F)(F)[N+]3=C(c5ccc[nH]5)C=CC3=C4)cc21 [Amitriptyline-a-2-NB590]	–	–	NanoBRET Fold Response (tracer at 0.1μM): 1.04; NanoBRET Fold Response (tracer at 1μM): 1.03
CN(C)CCC=C1c2ccccc2CCc2ccc(C(=O)NCCNC(=O)CCOCCOCCOCCOCCNC(=O)CCc3ccc4n3[B-](F)(F)[N+]3=C(c5ccc[nH]5)C=CC3=C4)cc21 [Amitriptyline-b-2-NB590]	–	–	NanoBRET Fold Response (tracer at 0.1μM, listed as amitriptyline-b-2-NB590): 1.08; NanoBRET Fold Response (tracer at 1μM, listed as amitriptyline-b-2-NB590): 0.96
CN(CCC=C1c2ccccc2CCc2ccccc21)C(=O)CCOCCOCCOCCOCCNC(=O)CCc1ccc2n1[B-](F)(F)[N+]1=C(c3ccc[nH]3)C=CC1=C2 [Amitriptyline-e-2-NB590]	–	–	NanoBRET Fold Response (tracer at 1μM): 1.04
COc1ccc2c(n1)c(CCNC(C)=O)cn2CCNC(=O)CCc1ccc2n1[B-](F)(F)[N+]1=C(c3ccc[nH]3)C=CC1=C2 [Azamelatonin-1-NB590]	–	–	NanoBRET Fold Response (0.1μM tracer): 0.97; NanoBRET Fold Response (1μM tracer): 0.90
COc1ccc2[nH]c(-c3ccc(CNC(=O)CCOCCOCCOCCOCCNC(=O)CCc4ccc5n4[B-](F)(F)[N+]4=C(c6ccc[nH]6)C=CC4=C5)cc3)c(CCNC(C)=O)c2n1 [AzomelatoninICO9-2-NB590]	–	–	NanoBRET Fold Response (0.1μM tracer): 0.94; NanoBRET Fold Response (1μM tracer): 0.99
O=C(CCOCCOCCOCCOCCNC(=O)CCc1ccc2n1[B-](F)(F)[N+]1=C(c3ccc[nH]3)C=CC1=C2)NCCCN1CCN(C2=Nc3cc(Cl)ccc3Nc3ccccc32)CC1 [Clozapine-a-2-NB590]	–	–	NanoBRET Fold Response (ADRB2, 0.1μM tracer): 1.09; NanoBRET Fold Response (ADRB2, 1μM tracer): 1.10
CN1CCN(C2=Nc3cc(Cl)ccc3Nc3ccc(CNC(=O)CCOCCOCCOCCOCCNC(=O)CCc4ccc5n4[B-](F)(F)[N+]4=C(c6ccc[nH]6)C=CC4=C5)cc32)CC1 [Clozapine-b-2-NB590]	–	–	NanoBRET Fold Response (ADRB2, 0.1μM tracer): 1.01; NanoBRET Fold Response (ADRB2, 1μM tracer): 0.93
CN1CCN(C2=Nc3cc(Cl)ccc3N(CC(=O)NCCOCCOCCOCCOCCNC(=O)CCc3ccc4n3[B-](F)(F)[N+]3=C(c5ccc[nH]5)C=CC3=C4)c3ccccc32)CC1 [Clozapine-c-2-NB590]	–	–	NanoBRET Fold Response (ADRB2, 0.1μM tracer): 0.99; NanoBRET Fold Response (ADRB2, 1μM tracer): 1.02
O=C(CCOCCOCCOCCOCCNC(=O)CCc1ccc2n1[B-](F)(F)[N+]1=C(c3ccc[nH]3)C=CC1=C2)NCCCN1CCN(C2=Nc3ccccc3Oc3ccc(Cl)cc32)CC1 [Loxapine-a-2-NB590]	1.06	0.94	–
COc1ccccc1N1CCN(CCCCN2C(=O)c3ccc(CNC(=O)CCOCCOCCOCCOCCNC(=O)CCc4ccc5n4[B-](F)(F)[N+]4=C(c6ccc[nH]6)C=CC4=C5)cc3C2=O)CC1 [NAN-190-2-NB590]	1.25	1.66	–
COc1ccccc1N1CCN(CCCCN2C(=O)c3ccc(CNC(=O)CCOCCNC(=O)c4ccc(CNC(=O)CCc5ccc6n5[B-](F)(F)[N+]5=C(c7ccc[nH]7)C=CC5=C6)cc4)cc3C2=O)CC1 [NAN-190-3-NB590]	1.00	1.45	–
O=C(CCc1ccc2n1[B-](F)(F)[N+]1=C(c3ccc[nH]3)C=CC1=C2)NCc1ccc(C(=O)NCCOCCC(=O)N[C@@H]2CC[C@@]3(O)[C@H]4Cc5ccc(O)c6c5[C@@]3(CCN4CC3CC3)[C@H]2O6)cc1 [Naltrexone-3-NB590]	1.36	0.89	–
Cc1cc2c(s1)Nc1ccccc1N=C2N1CCN(CCCNC(=O)CCOCCOCCOCCOCCNC(=O)CCc2ccc3n2[B-](F)(F)[N+]2=C(c4ccc[nH]4)C=CC2=C3)CC1 [Olanzapine-a-2-NB590]	1.01	1.15	–
O=C(CCc1ccc2n1[B-](F)(F)[N+]1=C(c3ccc[nH]3)C=CC1=C2)NCCOCCOCCNC(=O)OCCOCCN1CCN(C2=Nc3ccccc3Sc3ccccc32)CC1 [Quetiapine-a-2-NB590]	1.13	0.97	–
Cc1nc2n(c(=O)c1CCN1CCC(c3noc4cc(F)ccc34)CC1)CCCC2OC(=O)NCCOCCOCCOCCOCCNC(=O)CCc1ccc2n1[B-](F)(F)[N+]1=C(c3ccc[nH]3)C=CC1=C2 (centres unmarked) [Risperidone-2-NB590]	0.97	0.98	–
CC(C)N(CC[C@H](c1ccccc1)c1cc(CCNC(=O)CCOCCOCCOCCOCCNC(=O)CCc2ccc3n2[B-](F)(F)[N+]2=C(c4ccc[nH]4)C=CC2=C3)ccc1O)C(C)C [Tolterodine-2-NB590]	0.93	1.03	–
CC(C)N(CC[C@H](c1ccccc1)c1cc(CCNC(=O)c2ccc(CNC(=O)CCc3ccc4n3[B-](F)(F)[N+]3=C(c5ccc[nH]5)C=CC3=C4)cc2)ccc1O)C(C)C [Tolterodine-BZ-NB590]	1.04	1.19	–
CCCn1c(=O)c2[nH]c(-c3ccc(OCC(=O)NCCNC(=O)CCOCCNC(=O)c4ccc(CNC(=O)CCc5ccc6n5[B-](F)(F)[N+]5=C(c7ccc[nH]7)C=CC5=C6)cc4)cc3)nc2n(CCC)c1=O [XAC-3-NB590]	1.04	1.10	–

Source: paper PMC8151276, “An Integrated Approach toward NanoBRET Tracers for Analysis of GPCR Ligand Engagement” (Molecules, 2021)
